We go through 8 compounds from PMC8048783, “CYP154C5 Regioselectivity in Steroid Hydroxylation Explored by Substrate Modifications and Protein Engineering” (Chembiochem, 2020).

Experiment [1] concerns the target T1, CYP154C5 (Nocardia farcinica, UniProt Q5YNS8).
T1 construct: gene NFA_53110; full-length, N-terminal His-tag (pET28a(+), NdeI/HindIII), purified from E. coli C43(DE3)
Briefly: biochemical. Type of experiment: binding.

Experiment [2] has as its target T2, CYP154C5 (Nocardia farcinica, UniProt Q5YNS8, F92A).
T2 construct: gene NFA_53110; full-length, N-terminal His-tag (pET28a(+), NdeI/HindIII), purified from E. coli C43(DE3)
Briefly: type I spectral shift titration, tight-binding fit. The text has this:
(§1) type I spectral shift titration, tight-binding fit on CYP154C5

Experiment [3] has as its target T3, CYP154C5 (Nocardia farcinica, UniProt Q5YNS8, Q398A).
T3 construct: gene NFA_53110; full-length, N-terminal His-tag (pET28a(+), NdeI/HindIII), purified from E. coli C43(DE3)
Briefly: type I spectral shift titration, tight-binding fit.
Excerpt: as §1

For experiment [4], the target named is T4, CYP154C5 (Nocardia farcinica, UniProt Q5YNS8, M84A).
T4 construct: gene NFA_53110; full-length, N-terminal His-tag (pET28a(+), NdeI/HindIII), purified from E. coli C43(DE3)
T4 sequence (Q5YNS8 whole entry M84A): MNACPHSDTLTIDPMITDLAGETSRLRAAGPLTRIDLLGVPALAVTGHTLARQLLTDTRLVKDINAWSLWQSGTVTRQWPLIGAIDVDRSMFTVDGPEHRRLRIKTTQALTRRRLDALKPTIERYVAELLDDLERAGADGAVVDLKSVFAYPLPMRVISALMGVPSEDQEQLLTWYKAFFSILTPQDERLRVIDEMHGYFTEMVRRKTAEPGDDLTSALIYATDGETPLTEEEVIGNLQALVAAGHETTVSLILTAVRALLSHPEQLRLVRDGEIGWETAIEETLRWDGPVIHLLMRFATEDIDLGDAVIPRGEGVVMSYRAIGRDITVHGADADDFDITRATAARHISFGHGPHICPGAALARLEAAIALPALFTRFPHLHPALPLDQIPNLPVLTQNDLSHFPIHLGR
The experiment can be described thus: type I spectral shift titration, tight-binding fit.
Excerpt: as §1

In experiment [5] the target is T5, CYP154C5 (Nocardia farcinica, UniProt Q5YNS8, Q239A).
T5 construct: gene NFA_53110; full-length, N-terminal His-tag (pET28a(+), NdeI/HindIII), purified from E. coli C43(DE3)
T5 sequence (Q5YNS8 whole entry Q239A): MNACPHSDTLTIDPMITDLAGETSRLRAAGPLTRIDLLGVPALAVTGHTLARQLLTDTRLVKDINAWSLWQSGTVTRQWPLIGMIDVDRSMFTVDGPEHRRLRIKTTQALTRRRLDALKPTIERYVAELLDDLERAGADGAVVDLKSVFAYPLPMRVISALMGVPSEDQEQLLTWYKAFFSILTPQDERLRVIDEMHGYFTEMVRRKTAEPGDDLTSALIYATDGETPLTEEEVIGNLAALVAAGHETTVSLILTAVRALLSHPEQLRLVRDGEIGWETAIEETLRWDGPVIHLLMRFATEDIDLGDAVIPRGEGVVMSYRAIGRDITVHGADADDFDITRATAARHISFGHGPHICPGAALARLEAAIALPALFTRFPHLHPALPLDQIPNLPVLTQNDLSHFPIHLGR
Briefly: type I spectral shift titration, tight-binding fit.
Excerpt: as §1

T2 sequence (Q5YNS8 whole entry F92A): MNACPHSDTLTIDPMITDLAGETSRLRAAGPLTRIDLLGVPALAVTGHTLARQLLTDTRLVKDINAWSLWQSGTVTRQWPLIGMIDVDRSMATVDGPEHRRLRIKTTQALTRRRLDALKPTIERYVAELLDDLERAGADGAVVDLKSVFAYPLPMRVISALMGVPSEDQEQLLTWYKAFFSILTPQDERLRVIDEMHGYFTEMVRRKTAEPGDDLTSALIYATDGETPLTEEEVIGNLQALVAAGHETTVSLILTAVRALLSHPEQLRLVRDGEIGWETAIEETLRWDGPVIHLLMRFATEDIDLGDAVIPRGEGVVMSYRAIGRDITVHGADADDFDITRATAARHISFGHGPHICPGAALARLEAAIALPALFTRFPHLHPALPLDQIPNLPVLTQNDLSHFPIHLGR
T3 sequence (Q5YNS8 whole entry Q398A): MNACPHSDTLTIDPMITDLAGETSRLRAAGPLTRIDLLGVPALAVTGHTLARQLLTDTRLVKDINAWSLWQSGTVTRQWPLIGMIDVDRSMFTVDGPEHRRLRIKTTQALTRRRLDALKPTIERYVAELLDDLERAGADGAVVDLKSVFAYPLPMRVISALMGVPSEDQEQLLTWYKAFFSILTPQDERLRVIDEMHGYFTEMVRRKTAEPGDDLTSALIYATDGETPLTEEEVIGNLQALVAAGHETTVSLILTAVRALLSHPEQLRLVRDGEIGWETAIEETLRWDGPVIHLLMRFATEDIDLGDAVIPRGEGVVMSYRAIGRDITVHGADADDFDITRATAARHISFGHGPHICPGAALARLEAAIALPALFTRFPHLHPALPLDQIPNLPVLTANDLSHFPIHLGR
T1 sequence (Q5YNS8 entry or part of it): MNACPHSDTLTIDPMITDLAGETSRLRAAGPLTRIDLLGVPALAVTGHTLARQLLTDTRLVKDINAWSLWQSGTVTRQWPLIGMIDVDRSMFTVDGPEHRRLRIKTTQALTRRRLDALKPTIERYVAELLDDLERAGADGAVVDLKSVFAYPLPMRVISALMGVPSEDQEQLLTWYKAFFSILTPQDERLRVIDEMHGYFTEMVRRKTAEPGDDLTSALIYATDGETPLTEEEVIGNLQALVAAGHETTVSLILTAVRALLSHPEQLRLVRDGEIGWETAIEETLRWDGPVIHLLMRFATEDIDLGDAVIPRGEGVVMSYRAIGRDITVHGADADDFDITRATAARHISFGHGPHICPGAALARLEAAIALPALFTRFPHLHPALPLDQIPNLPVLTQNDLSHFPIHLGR

On to `CC(=O)[C@H]1CC[C@H]2[C@@H]3CC=C4C[C@@H](O)CC[C@]4(C)[C@H]3CC[C@]12C` [compound 1, pregnenolone], for which binding on CYP154C5 [1] was put at a Kd of 62 ± 14 nM.
Turning to `C[C@]12CC[C@H](O)CC1=CC[C@@H]1[C@@H]2CC[C@]2(C)C(=O)CC[C@@H]12` [compound 2, dehydroepiandrosterone], the Kd (as a rule, the free concentration of one partner at which half of the binding sites on the other are occupied at equilibrium, for simple one-to-one binding) is 1020 ± 32 nM at CYP154C5 [2], 687 ± 43 nM on CYP154C5 [3] and under 1 nM at CYP154C5 [1].
For `CC(=O)[C@H]1CC[C@H]2[C@@H]3CCC4=CC(=O)CC[C@]4(C)[C@H]3CC[C@]12C` [compound 3, progesterone], the Kd was found to be 209 ± 12 nM at CYP154C5 [2], 34 ± 21 nM at CYP154C5 [3] and 15 ± 10 nM on CYP154C5 [1].
Consider `C[C@]12CCC(=O)C=C1CC[C@@H]1[C@@H]2CC[C@]2(C)C(=O)CC[C@@H]12` [compound 4, androstenedione], for which the Kd stood at 3130 ± 234 nM at CYP154C5 [4], 512 ± 17 nM on CYP154C5 [2] and 12 ± 7 nM on CYP154C5 [1].
Turning to `C[C@]12CC[C@H]3[C@@H](CCC4=CC(=O)CC[C@@]43C)[C@@H]1CC[C@@H]2O` [compound 5, testosterone], the Kd on CYP154C5 [4] was 5710 ± 161 nM; on CYP154C5 [2] it was 1480 ± 33 nM; on CYP154C5 [3], 747 ± 45 nM; at CYP154C5 [1], 18 ± 10 nM.
For `C[C@]12CC[C@H]3[C@@H](CCC4=CC(=O)CC[C@@H]43)[C@@H]1CC[C@@H]2O` [compound 6, nandrolone], the values for the Kd at CYP154C5 [5] and on CYP154C5 [1] were 13 ± 6 nM and 100 ± 17 nM, respectively.
For `C[C@]12CCCCC1=CC[C@@H]1[C@@H]2CC[C@]2(C)C(=O)CC[C@@H]12` [compound 10, 3‐deoxydehydroepiandrosterone], the Kd at CYP154C5 [1] worked out at 94 ± 52 nM.
Turning to `C[C@@]12CCC[C@H]1[C@@H]1CC[C@H]3CC(=O)CC[C@]3(C)[C@H]1CC2` [compound 11, 5α‐androstan‐3‐one], the Kd on CYP154C5 [1] was determined as 20 ± 16 nM.
